Laboratory results as given in publication PMC8617031, “Development of a BCL-xL and BCL-2 dual degrader with improved anti-leukemic activity,” (Nature Communications, 2021).
Where “and” joins values, the source holds several entries; their conditions need not be identical. Equal entries are not always repeated.

System: Flag-BCL-xL (WT and lysine mutants)
Test: Degradation of Flag-BCL-xL WT and lysine mutants in transfected 293T cells
Type: cell-based, human
Conditions: DMSO = 100
Description: Cells were collected, washed once with ice-cold phosphate-buffered saline, pH 7.2 (PBS, cat. no. 20012027; Thermo Fisher Scientific) and lysed in RIPA lysis buffer (Cat. No. BP-115DG, Boston Bio Products, Ashland, MA, USA) supplemented with protease and phosphatase inhibitor cocktails (Cat. No. PPC1010, Sigma-Aldrich, St. Louis, MO, USA) through sonication. The samples were centrifuged at 14,000 r.p.m. for 5 min and the supernatants were transferred into a new tube. The protein concentration in the supernatants was determined using the Pierce BCA protein Assay kit (cat. no. 23225, Thermo Fisher Scientific). The protein concentration was normalized, and the samples were reduced in 4× Laemmli’s SDS-sample buffer (cat. no. BP-110R, Boston Bio Products) and denatured at 95 °C for 5 min. An equal amount of protein samples (20–40 μg per lane) were resolved using precast 4–20% Tris-glycine gels (Mini-PROTEAN TGX, cat. no. 456–1094, Bio-Rad), and resolved proteins were transferred onto 0.2-µm pore size polyvinylidene difluoride (PVDF) blotting membranes (cat. no. LC2002, Thermo Fisher Scientific) using mini trans-blot electrophoretic transfer cell (Bio-Rad). The membranes were blocked with non-fat dry milk (5% wt/vol) in 1× Tris-buffered saline-Tween-20 (TBST, cat. no. J77500, Affymetrix) for 1 h at room temperature, and were subsequently probed with primary antibodies at a predetermined optimal concentration in non-fat dry milk (5% wt/vol in TBST) overnight at 4 °C. The membranes were washed three times (5 min each) in TBST and then incubated with horse radish peroxidase (HRP)-conjugated secondary antibodies for 1 h at room temperature. Following sufficient washing with TBST, the membranes were exposed with chemiluminescent HRP substrate (cat. no. WBKLS0500, MilliporeSigma), and the signal was detected using the ChemiDoc MP Imaging System (Bio-Rad) and quantified using the ImageJ (v1.53a) software from NIH.
Plasmids were purified on miniprep columns according to the manufacturer’s protocol (Cat. No. 27106 Qiagen, Germantown, MD, USA). The construction of Flag-BCL-xL (pDL2009) and Flag-BCL-xL-K-ko (pDL2129) were described previously. Flag-BCL-2 was a gift from Clark Distelhorst (Addgene plasmid # 18003, Watertown, MA, USA). Plasmids Flag-BCL-xL-K16-only, Flag-BCL-xL-K20-only, Flag-BCL-xL-K157-only, Flag-BCL-xL-K-ko-R34K, Flag-BCL-xL-K-ko-R102K, Flag-BCL-xL-K-ko-R132K, Flag-BCL-xL-K-ko-G186K, Flag-BCL-2-K17R, Flag-BCL-2-K22R, and Flag-BCL-2-K17/22R were constructed by using Q5® Site-Directed Mutagenesis Kit (Cat. No. E0554S, NEB, Ipswich, MA, USA) and the following primer sets. Flag-BCL-xL-K-ko (pDL2129) or Flag-BCL-2 was used as the template. Flag-BCL-xL-K16-only: forward (5′-[…]a[…]-3′) and reverse (5′-[…]-3′); Flag-BCL-xL-K20-only: forward (5′-[…]a[…]-3′) and reverse (5′-[…]-3′); Flag-BCL-xL-K157-only: forward (5′-[…]a[…]-3′) and reverse (5′-[…]-3′); Flag-BCL-xL-R34K: forward (5′-[…]a[…]-3′) and reverse (5′-[…]-3′); Flag-BCL-xL-R102K: forward (5′-[…]aa[…]-3′) and reverse (5′-[…]-3′); Flag-BCL-xL-R132K: forward (5′-[…]aa[…]-3′) and reverse (5′-[…]-3′); Flag-BCL-xL-G186K: forward (5′-[…]aa[…]-3′) and reverse (5′-[…]-3′); Flag-BCL-2-K17R: forward (5′-[…]g[…]-3′) and reverse (5′-[…]-3′); Flag-BCL-2-K22R: forward (5′-[…]g[…]-3′) and reverse (5′-[…]-3′); Flag-BCL-2-K17/22R: forward (5′-cattatag[…]-3′) and reverse (5′-gatgtacc[…]-3′). DNA sequences in all these plasmids were authenticated by automatic sequencing. […] The cells were harvested using RIPA lysis buffer containing protease and phosphatase inhibitor as mentioned above. The primers used in this study are also listed in Supplementary Table 1.

Cc1ncsc1-c1ccc([C@H](C)NC(=O)[C@@H]2C[C@@H](O)CN2C(=O)[C@@H](NC(=O)CCCCCCC(=O)N2CCN(C[C@]3(C)CCC(c4ccc(Cl)cc4)=C(CN4CCN(c5ccc(C(=O)NS(=O)(=O)c6ccc(N[C@H](CCN7CCOCC7)CSc7ccccc7)c(S(=O)(=O)C(F)(F)F)c6)cc5)CC4)C3)CC2)C(C)(C)C)cc1 [753b]
relative Flag-BCL-xL protein content (K16-only mutant, 753b-treated 293T, Fig. 5a): 86 and 85 and 66 | relative Flag-BCL-xL protein content (K20-only mutant, 753b-treated 293T, Fig. 5a): 29 and 42 and 46 | relative Flag-BCL-xL protein content (WT Flag-BCL-xL, 753b-treated 293T, Fig. 5a, 3 replicates): 34 and 30 and 42

Cc1ncsc1-c1ccc([C@H](C)NC(=O)[C@@H]2C[C@@H](O)CN2C(=O)[C@@H](NC(=O)CCCCCC(=O)N2CCN(CC[C@H](CSc3ccccc3)Nc3ccc(S(=O)(=O)NC(=O)c4ccc(N5CCN(CC6=C(c7ccc(Cl)cc7)CCC(C)(C)C6)CC5)cc4)cc3S(=O)(=O)C(F)(F)F)CC2)C(C)(C)C)cc1 [DT2216]
relative Flag-BCL-xL protein content (K157-only mutant, DT2216-treated 293T, Fig. 1f): 91 and 97 and 105 | relative Flag-BCL-xL protein content (K-ko mutant, DT2216-treated 293T, Fig. 1f): 95 and 102 and 90 | relative Flag-BCL-xL protein content (K-ko-G186K mutant, DT2216-treated 293T, Fig. 1f): 81 and 88 and 95 | relative Flag-BCL-xL protein content (K-ko-R34K mutant, DT2216-treated 293T, Fig. 1f): 50 and 41 and 44 | relative Flag-BCL-xL protein content (K-ko-R102K mutant, DT2216-treated 293T, Fig. 1f): 64 and 57 and 51 | relative Flag-BCL-xL protein content (K-ko-R132K mutant, DT2216-treated 293T, Fig. 1f): 55 and 50 and 58 | relative Flag-BCL-xL protein content (WT Flag-BCL-xL, DT2216-treated 293T, Fig. 1f, 3 replicates): 7 and 33 and 22
